Measurements from patent US20230220327A1, “SERPIN PRODUCTION” (SOCIETE DES PRODUITS NESTLE S.A., priority 2019, published 2023).
Entries after “also recorded” stand apart in the source; their conditions may differ. No end group written: not given here.

Experiments:
[1] = test system: B. longum NCC 2705; test: serpin protein levels (ELISA) in B. longum NCC 2705 grown on different carbohydrates; type: cell-based, Bifidobacterium longum subsp longum
Protocol: B. longum strain CNCM 1-2618 (NCC 2705) was grown in Biolector (growth conditions—anaerobic, 37 00) in MRS+5 mM L-cysteine (MRSc) base without sugar, to which different carbohydrates were added.
(§1) 48-well microtiter plate with pH sensor and dissolved oxygen (DO) sensor were used to culture the strains in Biolector (m2p-labs Aachen, Germany). It was continuously shaken to prevent bacteria aggregation for 8 h. Cultures were harvested by centrifugation and supernatant was removed. Pellet was resuspended in PBS supplemented with halt protease inhibitor (Sigma) and lysed using glassbeads. Lysate containing both soluble and insoluble material was then collected.
(§2) Total protein content was measured using Pierce BCA kit (Thermofisher) and serpin protein concentration was determined using ELISA.
B. longum NCC 2705 was cultured in Biolector (as described in Example 1) in a base of MRSc without sugar, with the addition of different glucose & galactose ratios, to a final concentration of 1%. Cultures were collected after 18 h of growth and analyzed for total & serpin protein levels (as described in Example 1).
B. longum NCC 2705 was grown on an MRSc base without sugar, with addition of different commercially available galactooligosaccharides (GOS) at different concentrations. […] Obtained pellets were analyzed for total and serpin protein content (see Example 1). […]

[2] = test system: B. longum subsp. longum strains; test: serpin protein levels (ELISA) in B. longum subsp. longum strains; type: cell-based, Bifidobacterium longum subsp longum
Protocol: as §1, §2
The serpin encoding gene and its surrounding is highly conserved within the B. longum subsp. longum species. Strains of B. longum subsp. longum were selected to represent the entire span of the genetic phylogenetic tree (Table 2). […] Obtained pellets were further analyzed for total and serpin protein content (see example 1).
Serpin is furthermore conserved within a restricted number of Bifidobacteria species (Turroni, F. et al. Characterization of the serpin-encoding gene of Bifidobacterium breve 210B. Appl Environ Microbiol 76, 3206-3219, doi:10.1128/AEM.02938-09 (2010)). […] Obtained pellets were further analyzed for total and serpin protein content (see example 1).

[3] = test system: B. breve ATCC 15700 (T); test: serpin protein levels (ELISA) in B. breve; type: cell-based; conditions: 18 h (FIG. 7)
Protocol: as §1, §2
(§3) Serpin is furthermore conserved within a restricted number of Bifidobacteria species (Turroni, F. et al. Characterization of the serpin-encoding gene of Bifidobacterium breve 210B. Appl Environ Microbiol 76, 3206-3219, doi:10.1128/AEM.02938-09 (2010)). Strains belonging to these species (Table 3) were cultured in Biolector (see example 1) in a MRSc base without sugar, to which 1% glucose, 1% galactose was added. […] Cultures were grown for 18 h and harvested. Obtained pellets were further analyzed for total and serpin protein content (see example 1).

[4] = test system: B. longum subsp. infantis ATCC 15697 (T); test: serpin protein levels (ELISA) in B. longum subsp infantis; type: cell-based; conditions: 1% galactose, 18 h (FIG. 7)
Protocol: as §1, §2, §3

[5] = test system: B. longum subsp. suis ATCC 27533 (T); test: serpin protein levels (ELISA) in B. longum subsp suis; type: cell-based; conditions: 1% galactose, 18 h (FIG. 7)
Protocol: as §1, §2, §3

[6] = test system: B. longum subsp. longum strains; test: growth of B. longum subsp. longum strains on galactose as sole carbohydrate source; type: cell-based, Bifidobacterium longum subsp longum; conditions: 1% galactose, MRSc base without sugar
Protocol: The serpin encoding gene and its surrounding is highly conserved within the B. longum subsp. longum species. Strains of B. longum subsp. longum were selected to represent the entire span of the genetic phylogenetic tree (Table 2). All strains were cultured in Biolector (according to example 1) in a MRSc base without sugar, to which 1% glucose, 1% galactose or a mix of glucose & galactose (respectively 0.2 & 0.8%) was added. Cultures were grown for 18 h and harvested. Obtained pellets were further analyzed for total and serpin protein content (see example 1).

[7] = molecular target: T1, transglutaminase 2 (TG2) (Homo sapiens, UniProt P21980); conditions: in-vitro; inhibits deamidation of 33-mer gliadin peptide (McCarville et al. 2015); cited from earlier work
T1 sequence (P21980 1-687): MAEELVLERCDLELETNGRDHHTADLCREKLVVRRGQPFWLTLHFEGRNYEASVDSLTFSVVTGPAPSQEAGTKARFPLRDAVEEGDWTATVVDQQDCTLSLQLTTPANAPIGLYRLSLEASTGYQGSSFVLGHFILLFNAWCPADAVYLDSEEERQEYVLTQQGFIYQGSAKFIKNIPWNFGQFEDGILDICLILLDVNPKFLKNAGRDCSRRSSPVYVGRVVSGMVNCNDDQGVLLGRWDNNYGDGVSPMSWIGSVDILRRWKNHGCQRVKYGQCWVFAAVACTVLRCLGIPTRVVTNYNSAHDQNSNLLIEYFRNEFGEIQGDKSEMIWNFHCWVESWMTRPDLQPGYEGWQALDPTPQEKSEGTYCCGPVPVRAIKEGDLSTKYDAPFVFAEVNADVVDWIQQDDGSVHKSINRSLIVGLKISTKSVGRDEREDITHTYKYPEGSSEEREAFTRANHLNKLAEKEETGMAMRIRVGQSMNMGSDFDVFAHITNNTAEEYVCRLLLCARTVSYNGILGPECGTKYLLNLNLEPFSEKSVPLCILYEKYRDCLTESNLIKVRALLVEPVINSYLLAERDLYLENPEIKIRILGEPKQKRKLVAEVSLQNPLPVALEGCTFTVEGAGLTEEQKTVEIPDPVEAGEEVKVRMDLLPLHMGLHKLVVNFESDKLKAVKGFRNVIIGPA

[8] = test system: various forms of elastases and proteinase; conditions: Ying & Simon, 1993; cited from earlier work
[9] = test system: mouse model of gluten sensitivity; conditions: elafin delivered by a recombinant Lactococcus lactis (Galipeau et al., 2014); cited from earlier work

With O=C[C@H](O)[C@@H](O)[C@@H](O)[C@H](O)CO [galactose] as the molecule, how does the “production of serpin in the presence of glucose” value ([1]; different glucose & galactose ratios, final concentration 1%, 18 h, only when glucose is depleted during fermentation (FIG. 2)) read?
The value was “can induce production of serpin”.

And the serpin protein levels ([1]; grown for 8 h in MRSc base without sugar plus carbohydrate, compared to all other sugars tested (FIG. 1))?
Its serpin protein levels is “increase”.

What about the serpin protein levels ([2]; 1% galactose or 0.2% glucose & 0.8% galactose vs 1% glucose, 18 h (FIGS. 5-7)) of the same molecule?
The serpin protein levels was “increased in all B. longum subsp. longum strains; also recorded: significant serpin protein increase”.

What about the serpin induction ([3]; 1% galactose) of the same molecule?
The serpin induction was “none of the B. breve ATCC 15700 (T), B. longum subsp infantis nor B. longum subsp suis strains were induced”.

And the serpin induction [4]?
Its serpin induction is “neither induced by galactose”.

And the serpin induction [5]?
The serpin induction was “neither induced by galactose”.

What about the “ability to grow on galactose as sole carbohydrate source” value [6] of the same molecule?
The value was “Not all strains of B. longum subsp. longum were able to grow”.

Which results are given for “Elafin: human serine protease inhibitor (AQEPVKGPVSTKPGSCPIILIRCAMLNPPNRCLKDTDCPGIKKCCEGSCGMACFVPQ; ends and bridges not checked; cysteine pairing not given here; UniProt P19957 61-117, looked up)”?
inhibition of transglutaminase 2 (TG2) [7]: moderately inhibits; inhibitory capacity against elastases and proteinase [8]: potent inhibitory capacity; gluten-induced pathology and intestine inflammation [9]: reduce gluten-induced pathology and normalise intestine inflammation

B1: Papain: papain (from Worthington), previously demonstrated to induce serpin in B. breve (protein, UniProt P00784 134-345, looked up)
Papain: IPEYVDWRQKGAVTPVKNQGSCGSCWAFSAVVTIEGIIKIRTGNLNEYSEQELLDCDRRSYGCNGGYPWSALQLVAQYGIHYRNTYPYEGVQRYCRSREKGPYAAKTDGVRQVQPYNEGALLYSIANQPVSVVLEAAGKDFQLYRGGIFVGPCGNKVDHAVAAVGYGPNYILIKNSWGTGWGENGYIRIKRGTGNSYGVCGLYTSSFYPVKN
For B1, which serpin levels ([2]; 0.05 mg/ml papain on top of 1% glucose, 18 h (FIG. 7)) is on record?
The serpin levels was “did not increase serpin levels”.

And the serpin levels ([3]; 0.05 mg/ml papain on top of 1% glucose)?
The serpin levels was “did in the B. breve ATCC 15700 (T) strain”.
